Literature values, collected in US4486419A, “5,2',3',4',4",6"-Hexadeoxykanamycin and its 1-N-acylated derivative” (Zaidan Hojin Biseibutsu Kagaku Kenkyu Kai, priority 1982, dated 1984).

Tested on: dibekacin-resistant bacteria
Details: background, U.S. Pat. No. 4,107,424; cited from earlier work

NCC[C@H](O)C(=O)N[C@@H]1C[C@H](N)[C@@H](O[C@H]2O[C@H](CN)CC[C@H]2N)[C@H](O)[C@H]1O[C@H]1O[C@H](CO)[C@@H](O)[C@H](N)[C@H]1O [Habekacin, 1-N-[(S)-4-amino-2-hydroxybutyryl] dibekacin]
activity against dibekacin-resistant bacteria: active against dibekacin-resistant bacteria
